Assay [1] deals with T1, PAK2 (Homo sapiens, UniProt Q13177). Briefly: Z'-LYTE FRET kinase inhibition assay. In kind it is biochemical. Also noted: PAK2 (full length); purchased Invitrogen PV4565. As to the method: The activity/inhibition of human recombinant PAK1 (kinase domain) or PAK2 (full length) was determined by measuring the phosphorylation of a FRET peptide substrate (Ser/Thr19) labeled with Coumarin and Fluorescein using Z′-LYTE™ assay (Invitrogen). The 10 μL assay mixtures contained 50 mM HEPES (pH 7.5), 0.01% Brij-35, 10 mM MgCl2, 1 mM EGTA, 2 μM FRET peptide substrate, and PAK enzyme (20 pM PAK1; 50 pM PAK2). Incubations were carried out at 22° C. in black polypropylene 384-well plates (Corning Costar). Prior to the assay, enzyme, FRET peptide substrate and serially diluted test compounds were preincubated together in assay buffer (7.5 μL) for 10 minutes, and the assay was initiated by the addition of 2.5 μL assay buffer containing 4×ATP (160 μM PAK1; 480 μM PAK2). Following the 60-minute incubation, the assay mixtures were quenched by the addition of 5 μL of Z′-LYTE™ development reagent, and 1 hour later the emissions of Coumarin (445 nm) and Fluorescein (520 nm) were determined after excitation at 400 nm using an Envision plate reader (Perkin Elmer). […].

For assay [2], the target named is T2, PAK1 (Homo sapiens, UniProt Q13153). Briefly: Z'-LYTE FRET kinase inhibition assay. In kind it is biochemical. The arrangement: human recombinant PAK1 (kinase domain); purchased Invitrogen PV2830. Conditions: for PAK1 inhibitory activity and selectivity of conjugate: vs PAK2 and PAK4. As to the method:
The activity/inhibition of human recombinant PAK1 (kinase domain) or PAK2 (full length) was determined by measuring the phosphorylation of a FRET peptide substrate (Ser/Thr19) labeled with Coumarin and Fluorescein using Z′-LYTE™ assay (Invitrogen). The 10 μL assay mixtures contained 50 mM HEPES (pH 7.5), 0.01% Brij-35, 10 mM MgCl2, 1 mM EGTA, 2 μM FRET peptide substrate, and PAK enzyme (20 pM PAK1; 50 pM PAK2). Incubations were carried out at 22° C. in black polypropylene 384-well plates (Corning Costar). […] Following the 60-minute incubation, the assay mixtures were quenched by the addition of 5 μL of Z′-LYTE™ development reagent, and 1 hour later the emissions of Coumarin (445 nm) and Fluorescein (520 nm) were determined after excitation at 400 nm using an Envision plate reader (Perkin Elmer).
Target sequence in this assay (Q13153 270-521 limits assumed): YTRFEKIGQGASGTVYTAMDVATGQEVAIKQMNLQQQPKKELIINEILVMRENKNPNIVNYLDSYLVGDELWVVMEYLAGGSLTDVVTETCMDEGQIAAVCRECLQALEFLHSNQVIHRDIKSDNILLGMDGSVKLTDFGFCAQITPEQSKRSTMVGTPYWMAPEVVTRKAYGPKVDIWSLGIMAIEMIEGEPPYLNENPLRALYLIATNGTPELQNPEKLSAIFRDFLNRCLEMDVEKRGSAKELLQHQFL

A further assay concerns the target PAK4 (Homo sapiens, UniProt O96013). The assay is described as follows: Z'-LYTE FRET kinase inhibition assay. In kind it is biochemical. The arrangement: purchased Invitrogen. From the text: […]. […] […].
The next assay has as its system MCF7 cells. Briefly: Cell proliferation, MTT assay. Conditions: MCF7 cells. The class given is cell-based. As to the method: Cell proliferation was assessed by MTT assay.
Cell viability was measured by MTT assay and the half maximal inhibitory concentration (IC50) was calculated using GraphPad Prism. Triplicates were performed for each sample and medium alone was used as a blank.
The anti-proliferative effects of PAK1 degradation and inhibition were evaluated.
(Tetrazolium dyes change colour on reduction, which living cells bring about.)

Assay [3] concerns the target T1, PAK2. The assay is described as follows: PAK2 degradation in MCF7 and OVCAR3 cells, immunoblot. The arrangement: due to their high expression of both PAK1 and PAK2; endogenous in cells; host or cells: MCF7, OVCAR3. The class given is cell-based. The procedure: […]. Cells were incubated overnight then treated with various concentrations of Pak degraders alone or together with bortezomib or lenalidomide for 24 hours. Protein lysates were harvested at the times specified.
Cells were washed once in PBS and lysed in RIPA buffer (50 mM Tris-HCl, 150 mM NaCl, 0.25% (w/v) sodium deoxycholate, 1% (w/v) NP-40, pH 7.5) containing protease inhibitor cocktail (Roche) and phosphatase inhibitor cocktail (Roche) for 30 minutes on ice. Cell lysates were obtained by centrifugation at 13,500 rpm for 15 minutes at 4° C. BCA protein assay (Thermo Scientific) was used to determine protein concentration then equal amounts of total proteins were separated by SDS-PAGE (Bio-Rad) and transferred to PVDF membrane (Thermo Scientific) at 100V for 2 hours. Membranes were blocked in 5% (w/v) non-fat dry milk in tris-buffered saline with 0.1% Tween-20 (TBS-T) for 1 hour and incubated with primary antibody at 4° C. for overnight. […]
After verifying that BJG-05-039 retained specificity for PAK1, its degradation activity in cells was characterized. First, the PAK1 degrader was evaluated in the breast cancer cell line MCF7 and the ovarian cancer cell line OVCAR3 due to their high expression of both PAK1 and PAK2 and their known dependence on PAK1 (Prudnikova, et al. (2016) Oncogene 35:2178-2185; Shrestha, et al. (2012) Oncogene 31:3397-3408). […]
A general note: A western blot detects proteins with antibodies after separation by electrophoresis.

Another assay concerns OVCAR3 cells. The assay is described as follows: Cell proliferation, MTT assay. Conditions: OVCAR3 cells. In kind it is cell-based. As to the method: […]. Cell proliferation was assessed by MTT assay. […].
Cells were plated at 2×10^3 cells per well in 96-well plates overnight and treated with various concentrations of Pak degraders for 72 hours. Cell viability was measured by MTT assay and the half maximal inhibitory concentration (IC50) was calculated using GraphPad Prism. Triplicates were performed for each sample and medium alone was used as a blank.
The anti-proliferative effects of PAK1 degradation and inhibition were evaluated. […]. […] […]. […] […].

The target of assay [4] is T2, PAK1. Briefly: PAK1 degradation in MCF7 and OVCAR3 cells, immunoblot. In kind it is cell-based. The arrangement: endogenous in cells; host or cells: MCF7, OVCAR3. Conditions: MCF7 and OVCAR3 cells. As to the method: Protein lysates were harvested at the times specified.
Cell lysates were obtained by centrifugation at 13,500 rpm for 15 minutes at 4° C. BCA protein assay (Thermo Scientific) was used to determine protein concentration then equal amounts of total proteins were separated by SDS-PAGE (Bio-Rad) and transferred to PVDF membrane (Thermo Scientific) at 100V for 2 hours. Membranes were blocked in 5% (w/v) non-fat dry milk in tris-buffered saline with 0.1% Tween-20 (TBS-T) for 1 hour and incubated with primary antibody at 4° C. for overnight. Membranes were washed with TBS-T on the next day and incubated with HRP-conjugated secondary antibodies (Millipore) at room temperature for 1 hour and exposed to films after washing.
Target sequence in this assay (Q13153 whole entry, the tested form may be a part): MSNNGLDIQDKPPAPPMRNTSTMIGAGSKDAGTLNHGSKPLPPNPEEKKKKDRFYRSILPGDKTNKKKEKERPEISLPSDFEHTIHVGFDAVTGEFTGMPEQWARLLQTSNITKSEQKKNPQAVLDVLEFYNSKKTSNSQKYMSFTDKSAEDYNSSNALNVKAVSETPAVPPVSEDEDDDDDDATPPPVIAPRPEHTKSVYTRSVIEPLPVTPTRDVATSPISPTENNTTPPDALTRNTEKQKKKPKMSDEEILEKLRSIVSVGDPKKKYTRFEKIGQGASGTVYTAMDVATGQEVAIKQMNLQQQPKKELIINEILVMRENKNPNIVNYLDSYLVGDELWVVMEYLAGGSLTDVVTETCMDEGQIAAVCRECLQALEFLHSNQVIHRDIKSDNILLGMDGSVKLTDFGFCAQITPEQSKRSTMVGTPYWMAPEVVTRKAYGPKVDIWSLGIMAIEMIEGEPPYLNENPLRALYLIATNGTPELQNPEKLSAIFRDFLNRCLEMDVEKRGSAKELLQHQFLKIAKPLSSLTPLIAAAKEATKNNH

The structures appear in SMILES notation.

T1 sequence (Q13177 whole entry, the tested form may be a part): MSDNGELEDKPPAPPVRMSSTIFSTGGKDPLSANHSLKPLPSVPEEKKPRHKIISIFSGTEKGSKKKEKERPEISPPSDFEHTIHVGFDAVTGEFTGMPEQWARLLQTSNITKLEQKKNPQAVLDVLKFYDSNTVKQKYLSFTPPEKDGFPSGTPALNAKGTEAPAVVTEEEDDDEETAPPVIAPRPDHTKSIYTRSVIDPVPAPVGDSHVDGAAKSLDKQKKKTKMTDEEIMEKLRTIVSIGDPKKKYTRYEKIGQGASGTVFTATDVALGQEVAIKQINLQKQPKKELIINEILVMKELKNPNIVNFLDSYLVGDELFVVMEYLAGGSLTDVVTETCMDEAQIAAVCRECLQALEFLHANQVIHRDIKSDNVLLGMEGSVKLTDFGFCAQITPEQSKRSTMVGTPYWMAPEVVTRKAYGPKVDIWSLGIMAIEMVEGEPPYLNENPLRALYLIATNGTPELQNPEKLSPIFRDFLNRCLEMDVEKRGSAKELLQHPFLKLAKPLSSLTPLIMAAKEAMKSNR
PAK4, sequence (O96013 whole entry): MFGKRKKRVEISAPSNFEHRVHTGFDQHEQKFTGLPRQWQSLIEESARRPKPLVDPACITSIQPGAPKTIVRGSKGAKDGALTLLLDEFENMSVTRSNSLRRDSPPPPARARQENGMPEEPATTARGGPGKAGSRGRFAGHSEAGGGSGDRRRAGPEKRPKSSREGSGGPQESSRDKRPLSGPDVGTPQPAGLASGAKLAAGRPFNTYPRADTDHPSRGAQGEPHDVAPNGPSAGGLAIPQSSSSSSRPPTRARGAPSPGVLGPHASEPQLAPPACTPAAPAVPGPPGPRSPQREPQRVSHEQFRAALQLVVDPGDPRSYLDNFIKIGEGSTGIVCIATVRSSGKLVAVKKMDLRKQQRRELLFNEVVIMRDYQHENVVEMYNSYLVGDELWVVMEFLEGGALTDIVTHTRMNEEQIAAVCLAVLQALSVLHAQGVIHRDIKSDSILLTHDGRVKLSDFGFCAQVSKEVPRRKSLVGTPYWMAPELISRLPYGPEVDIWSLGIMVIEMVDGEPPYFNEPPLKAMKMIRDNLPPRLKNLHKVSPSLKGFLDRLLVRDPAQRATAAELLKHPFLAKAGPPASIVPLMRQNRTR

As a reminder, the IC50 is the concentration that inhibits the measured activity by half. As for `O=C1CCC(N2C(=O)c3cccc(NCCOCCOCCC(=O)N4CC[C@H](NC5=Nc6cc(F)ccc6N(CC(F)F)c6ccc(Cl)cc65)C4)c3C2=O)C(=O)N1` (some centres unmarked) [BJG-05-014], the IC50 turned out to be 724 nM at PAK2 [1], 432 nM at PAK1 [2] and 152 nM against PAK4. Also, the “PAK1 inhibitory activity and selectivity of conjugate” value on PAK1 [2] was “retained PAK1 inhibitory activity and selectivity”.

In the case of `O=C1CCC(N2C(=O)c3cccc(NCCCCCCC(=O)N4CC[C@H](NC5=Nc6cc(F)ccc6N(CC(F)F)c6ccc(Cl)cc65)C4)c3C2=O)C(=O)N1` (some centres unmarked) [BJG-05-017], the results for the IC50 against PAK2 [1], on PAK1 [2] and at PAK4 were over 3330 nM, over 1110 nM and over 1000 nM, respectively.

`O=C(COc1cccc2c1C(=O)N(C1CCC(=O)NC1=O)C2=O)NCCCCCCC(=O)N1CC[C@H](NC2=Nc3cc(F)ccc3N(CC(F)F)c3ccc(Cl)cc32)C1` (some centres unmarked) [BJG-05-018]: the IC50 on PAK2 [1] is over 10000 nM; at PAK1 [2] it was over 3330 nM; on PAK4 it was over 10000 nM.

For the compound `O=C1CCC(N2C(=O)c3cccc(NCCCC(=O)N4CC[C@H](NC5=Nc6cc(F)ccc6N(CC(F)F)c6ccc(Cl)cc65)C4)c3C2=O)C(=O)N1` (some centres unmarked) [BJG-05-019], the IC50 against PAK2 [1] was over 10000 nM; on PAK1 [2] it was 6300 nM; against PAK4, over 10000 nM.

For `Cc1ncsc1-c1ccc([C@H](C)NC(=O)C2C[C@@H](O)CN2C(=O)[C@@H](NC(=O)CCCCCCCC(=O)N2CC[C@H](NC3=Nc4cc(F)ccc4N(CC(F)F)c4ccc(Cl)cc43)C2)C(C)(C)C)cc1` (some centres unmarked) [BJG-05-020], the IC50 on PAK2 [1], at PAK1 [2] and on PAK4 was over 10000 nM in each case.

Take `O=C1CCC(N2C(=O)c3cccc(NCCOCCOCCNC(=O)N4CC[C@H](NC5=Nc6cc(F)ccc6N(CC(F)F)c6ccc(Cl)cc65)C4)c3C2=O)C(=O)N1` (some centres unmarked) [BJG-05-022]: the IC50 at PAK2 [1] was found to be 6750 nM; at PAK1 [2], 1490 nM; at PAK4 it was 3860 nM.

For the compound `O=C1CCC(N2C(=O)c3cccc(NCCCCCNC(=O)N4CC[C@H](NC5=Nc6cc(F)ccc6N(CC(F)F)c6ccc(Cl)cc65)C4)c3C2=O)C(=O)N1` (some centres unmarked) [BJG-05-027], the IC50 was over 10000 nM against PAK2 [1], 594 nM on PAK1 [2] and over 10000 nM against PAK4. Besides, the “PAK1 inhibitory activity and selectivity of conjugate” value on PAK1 [2] is “retained PAK1 inhibitory activity and selectivity”.

Turning to `Cc1ccc(CO)cc1N(Cc1ccccc1C#N)c1nc(Nc2ccc(N3CCN(CCOCCOCCNc4cccc5c4C(=O)N(C4CCC(=O)NC4=O)C5=O)CC3)c(S(C)(=O)=O)c2)ncc1F` (centres unmarked) [BJG-05-093, 2-(((2-((4-(4-(2-(2-(2-((2-(2,6-Dioxopiperidin-3-yl)-1,3-dioxoisoindolin-4-yl)amino)ethoxy)ethoxy)ethyl)piperazin-1-yl)-3-(methylsulfonyl)phenyl)amino)-5-fluoropyrimidin-4-yl)(5-(hydroxymethyl)-2-methylphenyl)amino)methyl)benzonitrile], the IC50 on PAK1 [2] worked out at 32.5 nM.

Turning to `Cc1ccc(CO)cc1N(Cc1ccccc1C#N)c1nc(Nc2ccc(N3CCN(C(=O)CCOCCOCCNc4cccc5c4C(=O)N(C4CCC(=O)NC4=O)C5=O)CC3)c(S(C)(=O)=O)c2)ncc1F` (centres unmarked) [BJG-05-094, 2-(((2-((4-(4-(3-(2-(2-((2-(2,6-Dioxopiperidin-3-yl)-1,3-dioxoisoindolin-4-yl)amino)ethoxy)ethoxy)propanoyl)piperazin-1-yl)-3-(methylsulfonyl)phenyl)amino)-5-fluoropyrimidin-4-yl)(5-(hydroxymethyl)-2-methylphenyl)amino)methyl)benzonitrile], the IC50 on PAK1 [2] stood at 103 nM.

Regarding `Cc1ccc(CO)cc1N(Cc1ccccc1C#N)c1nc(Nc2ccc(N3CCN(CCOCCOCCOCCOCCNc4cccc5c4C(=O)N(C4CCC(=O)NC4=O)C5=O)CC3)c(S(C)(=O)=O)c2)ncc1F` (centres unmarked) [BJG-05-095, 2-(((2-((4-(4-(14-((2-(2,6-Dioxopiperidin-3-yl)-1,3-dioxoisoindolin-4-yl)amino)-3,6,9,12-tetraoxatetradecyl)piperazin-1-yl)-3-(methylsulfonyl)phenyl)amino)-5-fluoropyrimidin-4-yl)(5-(hydroxymethyl)-2-methylphenyl)amino)methyl)benzonitrile], the IC50 on PAK1 [2] was determined as 36.6 nM.

Consider `CN1C(=O)CCC(N2C(=O)c3cccc(NCCCCCCCCNC(=O)N4CC[C@H](NC5=Nc6cc(F)ccc6N(CC(F)F)c6ccc(Cl)cc65)C4)c3C2=O)C1=O` (stereo partly drawn) [BJG-05-098, (3S)-3-((2-Chloro-5-(2,2-difluoroethyl)-8-fluoro-5H-dibenzo[b,e][1,4]diazepin-11-yl)amino)-N-(8-((2-(J-methyl-2,6-dioxopiperidin-3-yl)-1,3-dioxoisoindolin-4-yl)amino)octyl)pyrrolidine-1-carboxamide], for which the “Effect on cell proliferation” value in the assay on MCF7 cells and in the assay on OVCAR3 cells was “did not affect cell proliferation” throughout. Moreover, on PAK2 [3], the PAK2 degradation result was “did not induce degradation of PAK1 or PAK2”. In addition, the PAK1 degradation entry at PAK1 [4] is listed as “PAK1 degradation was not observed”.

As for `Nc1cccc2c1CN(C1CCC(=O)NC1=O)C2=O` (centres unmarked) [lenalidomide, reference compound], the “Effect on cell proliferation” value in the assay on MCF7 cells and with OVCAR3 cells was “lacked significant antiproliferative effects” throughout.

(Values after patent publication US20250312462A1, “PAK1 DEGRADERS AND METHODS OF USE THEREOF” (INSTITUTE FOR CANCER RESEARCH D/B/A THE RESEARCH INSTITUTE …, priority 2022, published 2025).)
